Results from ChEMBL document CHEMBL1154582, “Thonningianins A and B, new antioxidants from the African medicinal herb Thonningia sanguinea” (J Nat Prod, 2000).
Activity calls are given as the source filed them. The calls are words filed in the database; no cut-off is given here.

What was measured:
Assay type in all cases: functional
[1] = DPPH radical scavenging activity at 34.5 uM by ESR spectra
[2] = DPPH radical scavenging activity by ESR spectra
[3] = DPPH radical scavenging activity at 25 uM by ESR spectra

Row | IC50 [2] [µM] | Structure (SMILES) | Activity [1] [%] | Activity [3]
1 | 21 | O=C1OC[C@H]2O[C@@H](Oc3cc(O)c(C(=O)CCc4ccccc4)c(O)c3)[C@H](O)[C@@H](O)[C@@H]2OC(=O)c2cc(O)c(O)c(O)c2-c2c1cc(O)c(O)c2O [THONNINGIANIN B] | 90 | –
2 | 8 | O=C(O[C@@H]1[C@@H](O)[C@H](Oc2cc(O)c(C(=O)CCc3ccccc3)c(O)c2)O[C@@H]2COC(=O)c3cc(O)c(O)c(O)c3-c3c(cc(O)c(O)c3O)C(=O)O[C@@H]12)c1cc(O)c(O)c(O)c1 [THONNINGIANIN A] | – | Active
